Where “and” joins values, the source holds several entries; their conditions need not be identical. Identical values can stand only once.
Tests used:
male C57BL/6J mice = experiment: Pre-pulse inhibition (PPI) test, impairment induced by MK-801; format: in vivo
Method: The experiments were performed using male C57BL/6J mice weighting 25-30 g. The animals were maintained throughout the experimental period under standard laboratory conditions with free access to water and food will be used.
HU-474 (3 and 10 mg/kg) was dissolved in 2% Tween 80 in sterile saline (vehicle). MK-801 (a NMDA antagonist, 0.5 mg/kg, Sigma, USA) was dissolved in saline. Drugs were administered intraperitoneally (ip) at 10 mL/kg volume.
The animals (n=9-11/group) received i.p. administration of vehicle or HU-474 (3 and 10 mg/kg) followed, 30 minutes later, by saline or MK-801 (0.5 mg/kg), resulting in the following experimental groups: vehicle+saline, HU 10+saline, vehicle+MK-801, HU 3+MK-801, HU 10+MK-801. The animals were submitted to PPI test 20 minutes after the last drug injection.
The PPI was carried out in three consecutive steps. The first consisted of an acclimation period during which no stimulus was presented. In the second step, called habituation, only the stimulus that triggers the startle (pulse) was presented. […] During this session the stimuli are presented at regular intervals of 30 s, 8 presentations of each stimulus. The percentage of the PPI was expressed as the percent inhibition of startle amplitude in response to multiple presentations of the pulse preceded by pre-pulse (PP), depending on the amplitude of the response only to the pulse (P), which was obtained in the following formula: % PPI=100−((PP/P)×100). Using this formula 0% represents no difference between the amplitude of startle triggered only by the pulse or pulse preceded by the pre-pulse and therefore no pre-pulse inhibition. This transformation was performed in order to reduce the statistical variability attributable to differences between animals and represents a direct measure of pre-pulse inhibition (Issy et al., 2009).
The percentage of PPI was analyzed by repeated measures MANOVA with the treatment as the independent factor and the prepulse intensity (80, 85 and 90 dB) as repeated measure.

Male Swiss mice = experiment: Pre-pulse inhibition (PPI), impairment induced by amphetamine; format: in vivo
Method: (§1) Male Swiss mice (25-30 g) originated from the Central Animal Farm of the School of Medicine of Ribeirão Preto (FMRP-USP) were maintained in groups of five animals per box (41×33×17 cm) in a temperature controlled room (24±2° C.) with a 12×12 h light-dark cycle. They received water and food ad libitum throughout the study period.
Cannabidiol (CBD; THC Pharm, 15-60 mg/kg) and HU-485 (1-10 mg/kg) were administered intraperitoneally (ip). All drugs were dissolved in 2% Tween 80 in sterile saline.
The PPI test was conducted simultaneously in two identical startle response systems (Med Associates, USA). A continuous acoustic signal provided a background white noise level of 65 dB. The pulse consists of a 105 dB white noise burst with a rise/decay of 5 ms and duration of 20 ms. The pre-pulse comprised pure 7000 Hz tones, 10 ms duration, with intensities set at 80, 85, and 90 dB. The setups were daily calibrated to ensure equal sensitivity throughout the experiments. Calibration was performed by adjusting the gain on the load cell amplifier to 150 arbitrary units (AU) at a standard weight appropriated for a 40 g mice. The limits of the load cell were −2047 to +2047 AU. Thirty min after the injection of the tested compounds mice received i.p. injections of amphetamine 10 mg/kg or vehicle. […] The first 10 pulse-alone trials allow for the within-session habituation to the startle stimulus and are not considered for PPI statistical analysis. The test consisted of 64 pseudo-random trials divided into eight different groups presented with an inter-stimulus interval of 30 s, and consisting of pulse alone (105 dB), pre-pulse alone (80, 85, or 90 dB), pre-pulse+pulse with 100 ms interval between pre-pulse and pulse, and no stimulus presented. […] Mean acoustic startle response to pulse-alone (P) trials and each pre-pulse+pulse (PP+P) trial was recorded for each subject. PPI was calculated by expressing the pre-pulse+pulse startle amplitude as a percentage of decrease from pulse-alone startle amplitude, according to the following formula: % PPI=100−[100×(PP+P/P)]. This transformation reduces statistical variability attributable to differences between animals and it is a direct PPI measure. Antipsychotic drugs typically attenuate PPI impairment induced by amphetamine.
Results were analyzed by one-way ANOVA followed by Duncan test. […]
Animals received a first injection of vehicle (V) or CBD, followed 30 min later, by vehicle (n=9) or amphetamine 10 mg/kg (V+amphetamine group=9 animals). PPI was evaluated at three-stimuli intensity (90, 85 and 80 dB). […]
Animals received a first injection of vehicle (V) or HU-485, followed 30 min later, by vehicle (n=7) or amphetamine 10 mg/kg (V+amphetamine group=7 animals). PPI was evaluated at three-stimuli intensity (90, 85 and 80 dB). […]

Male Wistar rats [1] = experiment: Elevated plus maze (EPM), rats, microinjection into the dorsolateral periaqueductal gray; format: in vivo
Method: as §1, with “Male Wistar rats (220-250 g) and” for “Male”, “Ribeirio” for “Ribeirão”
(§2) HU-474 (1, 3 and 10 mg/kg) was administered intraperitoneally (IP) in mice at 10 mL/kg volume and HU-475 (1, 3 and 10 nmol) was injected intra-dIPAG in rats. Both drugs were dissolved in 2% Tween 80 in sterile saline.
Rats were submitted to a stereotaxic surgery to unilaterally implant cannulae (9.0 mm, 0.6 mm OD) into the dIPAG (coordinates: lateral: −1.9 mm; depth: −4.3 mm; angle: 16° from lambda; Paxinos and Watson, 2005), fixed to the skull with acrylic cement (Campos & Guimarães, 2008). The surgeries were performed under anesthesia with tribromoethanol 2.5% (10.0 mL/kg, IP) and immediately after the animals received Veterinary Pentabiotic (0.2 mL, intramuscular) and analgesic (Banamine, 1.0 mL/kg, subcutaneous) to prevent infections and decrease post-surgical pain. After surgery, animals underwent a recovery period of 5-7 days before the behavioral tests.
Animals received unilateral microinjections of vehicle or HU-475 into the dIPAG before being submitted to the behavioral tests. To this aim, microneedles (10.0 mm, 0.3 mm OD), connected to a microsyringe (Hamilton, USA, […]) through a segment of polyethylene (P10) were inserted into the guide cannulae. Solutions were injected with the help of an infusion pump (KD Scientific, USA). A 0.2 μL solution volume was injected over 1 min. After the injections, the needles remained inserted in the cannulae for additional 30 seconds to prevent drug reflux (Campos & Guimarães, 2008).
The wood EPM used to perform the experiments was located in a sound attenuated and temperature controlled room (23° C.), with one incandescent light (40 W) placed 1.3 m away from the maze. The apparatus consists of two opposing open arms (50×10 cm) without side walls, perpendicular to two enclosed arms (50×10×40 cm), with a central platform common to all arms (10×10 cm). The apparatus is elevated 50 cm above the ground and has an acrylic edge (1 cm) in the open arms to prevent animal falls. In this model, rodents naturally avoid the open arms, exploring more extensively the enclosed arms. […] The test lasted for 5 min and was recorded. The animal behavior was analyzed with the help of the Anymaze Software (version 4.5, Stoelting). […]
(§3) Results from HU-475 and HU-474 tests in the elevated plus maze were analyzed by Kruskal-Wallis followed by Mann-Whitney tests. Data from animals tested in the FST were analyzed by one-way ANOVA followed by Duncan test.

Swiss mice [2] = experiment: Elevated plus maze (EPM), mice, HU-474 IP; format: in vivo
Method: as §1, with “Male Wistar rats (220-250 g) and” for “Male”, “Ribeirio” for “Ribeirão”
as §2
The wood EPM used to perform the experiments was located in a sound attenuated and temperature controlled room (23° C.), with one incandescent light (40 W) placed 1.3 m away from the maze. The apparatus consists of two opposing open arms (50×10 cm) without side walls, perpendicular to two enclosed arms (50×10×40 cm), with a central platform common to all arms (10×10 cm). The apparatus is elevated 50 cm above the ground and has an acrylic edge (1 cm) in the open arms to prevent animal falls. In this model, rodents naturally avoid the open arms, exploring more extensively the enclosed arms. Anxiolytic drugs increase the exploration in open arms without affecting the number of enclosed arms entries, which is usually used to assess general exploratory activity (File, 1992). Ten minutes after the last injection the animal was placed on the central platform of the maze with the head facing one of the enclosed arms. The test lasted for 5 min and was recorded. The animal behavior was analyzed with the help of the Anymaze Software (version 4.5, Stoelting). This software indicates the location of the animal in the EPM and automatically calculates the percentage of entries (Peo) and time spent in the open arms (Pto) and the number of entries in the enclosed arms (EA). Animals were only considered to enter an open or enclosed arm when 90% of their bodies were inside the region. All experiments were performed in the morning period (8 to 12 a.m.).
Similar to 5.1 except that the each arm measured 30×5 cm. 5.3 Forced Swimming Test (FST) Mice
as §3

Swiss mice [3] = experiment: Forced swimming test (FST), mice; format: in vivo
Method: as §1, with “Male Wistar rats (220-250 g) and” for “Male”, “Ribeirio” for “Ribeirão”
as §2
Animals were individually submitted for 6 min of forced swimming in glass cylinders (height 25 cm, diameter 17 cm) containing 10 cm of water. The mice were videotaped and the immobility time (characterized by slow movements necessary to avoid drowning) was measured during the last 4-min period. The water was changed after each trial to maintain the temperature at 23-25° C. and to prevent the influence of alarm substances (Zanelati et al., 2010).
as §3

rats = settings: Vogel punished licking test, intra-dlPAG; cited from earlier work
Swiss mice [4] = settings: single administration i.p., MK801 0.3-1 mg/kg i.p.; 1 and 15 mg/kg also tested; cited from earlier work
Male Wistar rats [5] = settings: intra-dlPAG; doses tested 15, 30 and 60 nmol; cited from earlier work
Swiss mice [6] = settings: i.p., doses tested 3, 10, 30 and 100 mg/kg; cited from earlier work
Swiss mice [7] = settings: cited from earlier work

## C[C@]12N[C@H](Cc3ccccc31)c1ccccc12 [MK-801, reference compound]
Male C57BL/6J mice; MK-801 0.5 mg/kg i.p., all prepulse intensities, P<0.05
  effect on PPI: significant PPI disruption

## CC(N)Cc1ccccc1 (stereo not shown) [amphetamine, reference compound]
Male Swiss mice; amphetamine 10 mg/kg i.p., all intensities (90, 85, 80 dB), Duncan p<0.05
  effect on PPI: impaired PPI

## C=C(CF)[C@@H]1CCC(C)=CC1c1c(OC(C)=O)cc(CCCCC)cc1OC(C)=O (stereo partly shown) [HU-475, 10-fluoro-cannabidiol diacetate]
Male Wistar rats [1]; 1, 3 and 10 nmol intra-dlPAG
  number of enclosed arm entries: No effect
Male Wistar rats [1]; 1, 3 and 10 nmol intra-dlPAG, vs vehicle, X2=8.5, p=0.075 (trend)
  percentage of time spent in the open arms: tended to do the same
Male Wistar rats [1]; 1, 3 and 10 nmol intra-dlPAG, vs vehicle, X2=9.66, p<0.05
  percentage of entries onto the open arms: increased
Male Wistar rats [1]; EPM, intra-dlPAG injection, comparison of effective doses
  potency relative to CBD: 10 times

## C=C(C)[C@@H]1CCC(C)=CC1c1c(O)cc(CCCCC)c(F)c1O (stereo partly shown) [HU-474, 4′-fluoro-cannabidiol]
Swiss mice [2]; 1, 3 and 10 mg/kg IP
  number of enclosed arms entries: No effect
  percentage of entries onto the open arms: No effect
Swiss mice [2]; 1, 3 and 10 mg/kg IP, vs vehicle, X2=8.13, p<0.05
  percentage of time spent in the open arms: increased
Swiss mice [2]; systemic administration, bell-shaped dose-response curve
  effective dose (anxiolytic-like effect in the EPM): 3 mg/kg
Swiss mice [3]; dose of 3 mg/kg IP (printed 3 m/kg), p=0.019
  immobility time in the FST: decreased
Swiss mice [3]; doses of 1 and 10 mg/kg IP
  immobility time in the FST: ineffective
Swiss mice [3]; forced swimming test, comparison of effective doses
  potency relative to CBD: 10 times
Male C57BL/6J mice; 10 mg/kg i.p., MK-801 0.5 mg/kg, all prepulse intensities (80, 85, 90 dB), P<0.05
  effect on MK-801 PPI disruption: attenuated
Male C57BL/6J mice; i.p., 3 and 10 mg/kg tested
  effective dose against MK-801 PPI disruption: 10 mg/kg

## C=C(C)[C@@H]1CCC(C)=C[C@H]1c1c(O)cc(CCCCC)cc1O [CBD, Cannabidiol]
rats
  dose producing an anxiolytic-like effect: 30 nmol
Swiss mice [4]
  effective dose attenuating PPI deficits caused by MK801: 5 mg/kg
Male Wistar rats [5]
  effective dose (anxiolytic-like effect in the EPM): 30 nmol
Swiss mice [6]
  dose producing an antidepressant-like effect in the forced swimming test: 30 mg/kg
Male Swiss mice; CBD 30 and 60 mg/kg ip, intensities of 85 and 80 dB, amphetamine 10 mg/kg
  effect on PPI impairment by amphetamine: attenuated
Swiss mice [7]
  dose able to attenuate the hyper-locomotion induced by MK801: 30 mg/kg
  effective doses, hyperlocomotion induced by d-amphetamine: 30 mg/kg and 60 mg/kg

— US20190084909A1, “F[…] COMPOUNDS, COMPOSITIONS AND USES THEREOF” (YISSUM RESEARCH DEVELOPMENT COMPANY OF THE HEBREW …, priority 2015, published 2019)
